In patent US10071042B2, “External dermatological agent for anti-ageing” (Hayashibara Co., Ltd., priority 2014, dated 2018):
Values belong to the compound of their own block, whether it stands above or below them.

How the values were obtained:
matrix metalloprotease-1 = experiment: Matrix metalloprotease-1 production of NHDF after IL-1β, ELISA (Experiments 5 and 9); type: cell-based, human; settings: 200 μM, single use; reduction against control
Procedure: Normal human dermal fibroblasts (NHDF), which had been suspended in a Dulbecco's Modified Eagle Medium supplemented with 10% fetal calf serum to give a concentration of 2.5×10^5 cells/mL, were placed in 96-well microplates by 0.1 mL/well and cultured until reaching a confluent state over the bottom of each well. Thereafter, the medium in each well was replaced with a fresh serum-free culture medium and culture for another 24 hours, added with any one of the test substances in Table 6 at each concentration shown in the table, and cultured for additional 24 hours. Then, the resulting cell cultures were added with human IL-1β to give a final concentration of 1 ng/ml, followed by culturing the cells for another 24 hours. After completion of the culture, matrix metalloprotease-1 in the supernatant in each well was detected with an enzyme-linked immuno sorbent assay (ELISA), commercialized by R & D Systems, Inc., MN, USA, developed coloration with tetramethylbenzidine, and measured for absorption at a wavelength of 450 nm. A control system was provided similarly as above except for not adding any test substance, and determined for the activity of matrix metalloprotease-1 similarly as in the above to be regarded as 100%. The production level of matrix metalloprotease-1 for each test substance was comparatively evaluated based on the following equation. Equation: Production level of matrix metalloprotease-1 (relative value (%))=[(Absorbance of a sample with any one of test substances)/(Absorbance of control)]×100
The experiment was repeated three times, and the data were compared to that of control with the Dunnett's multiple comparisons test. The symbol “*” means a level of significance of p<0.01.
Except for adding the test substances listed in Table 12 at respective concentrations shown in the table, experiments were respectively conducted in accordance with the methods in Experiment 5 disclosed in the specification to examine the effect of the combination use with ascorbic acid 2-glucoside used as a skin whitener in cosmetics on the action of anti-wrinkles by analogues of adenosine N1-oxide 5′-phosphate. A control system was provided and similarly treated as above except for not adding any test substance. The reduction rate of the production level of matrix metalloprotease-1 against that of control based on the following equation. Equation: Reduction rate of the production level of matrix metalloprotease−1(%)=100−[(Absorbance of a sample with any one of test substances)/(Absorbance of control)]×100

filaggrin protein = experiment: Expression of filaggrin protein, Western blot filaggrin/actin (Experiment 3); type: cell-based, human; settings: 0.5 mM (positive control); control = 100%
Procedure: Then, the expression of filaggrin was induced in such a manner of further culturing the cells for another four days, while replacing the culture medium with an EpiLife medium supplemented with 2 μM, 5 μM, or 10 μM of sodium adenosine N1-oxide 5′-phosphate every three days. […] After four days culture, the resultant cells were washed with Dulbecco's phosphate buffered saline, added with 0.1 mL of an SDS sample buffer (pH 6.8) containing 62.5 mM Tris-HCl, 2% SDS, 10% glycerol, and 50 mM DTT along with a protease inhibitor, and collected with a cell scraper. The collected cells were boiled for 10 min, disrupted ultrasonically, and quantified with “Pierce BCA Protein Assay Kit”, commercialized by ThermoFisher Scientific K. K., Yokohama, Japan. A prescribed amount of the resulting disrupted cells was sampled and subjected to SDS-polyacrylamide gel electrophoresis in an amount of 100 μg/lane, and the resulting gel was transferred to a PVDF membrane. The resulting transferred PVDF membrane was blocked with “Block Ace”, commercialized by DS Pharma Biomedical Co., Ltd., Osaka, Japan, reacted with a 200-fold dilution of “AKH1”, a mouse anti-filaggrin antibody, commercialized by, Santa Cruz Biotechnology Inc., CA, USA, or a 20,000-fold dilution of “MAB1501”, a mouse actin antibody, commercialized by Chemicon International Inc., MA, USA, as a first antibody, and then reacted with a 2,000-fold dilution of “P0447”, an HRP-labeled anti-mouse immunoglobulin, commercialized by Dako Japan, Tokyo, Japan, as a secondary antibody. After the reaction, by using ECL Plus Western Blotting Detection System, commercialized by GE Healthcare Japan, Tokyo, Japan, bands were detected on “Hyperfilm ECL”, a chemiluminescent film commercialized by GE Healthcare Japan, Tokyo, Japan. The detected bands were analyzed and quantified with “Image J”, an image analyzing software. A control system with no addition of any of the test substances was provided and the increasing intensity ratio of a band of filaggrin/actin was regarded as 100%, with which data for the increased percentages of the intensity ratios of bands of filaggrin/actin of the test substances were comparatively evaluated.

[1] = system: normal human epidermal keratinocytes; experiment: Production level of cornified envelope, absorbance 310 nm (Experiments 1-2 and 7); type: cell-based; settings: single use, increase over control
Procedure: Normal human epidermal keratinocytes were cultured similarly as in Experiment 1-1, except for adding the test substances listed in Table 2 at prescribed concentrations to the cells. The resulting cultured cells were washed once with phosphate buffered saline (PBS), followed by scrapping off the cells adhered to each culture plate by adding 0.5 mL of PBS to each well of the plates. The cell suspensions thus obtained were added with 10% sodium lauryl sulfate solution in a volume of ¼ of each of the suspension volumes, followed by stirring and freezing the resulting mixtures at −80° C. After thawing, the resulting mixtures were centrifuged at 12,000×g for 15 min, followed by collecting the cell precipitates which were then washed once with phosphate buffered saline containing 2% sodium lauryl sulfate. The resulting mixtures were centrifuged at 12,000×g for 15 min, followed by collecting the cells and suspending the collected cells with phosphate buffered saline containing 2% sodium lauryl sulfate and 20 mM dithiothreitol. The resulting cell suspensions were boiled in a boiling water bath for one hour and measured for absorbance at a wavelength of 310 nm to determine the production level of cornified envelope for each test system added with any of the test substances. A control system was provided similarly as above except for not adding any one of the test substances to the system, and determined for absorbance at a wavelength of 310 nm similarly as in the above to be regarded as 100%. The production level of cornified envelope for each test substance was relatively evaluated based on the following equation. Equation: Production level of cornified envelope (Relative value (%))=[(Absorbance of a sample with any one of test substances)/(Absorbance of Control)]×100
(§1) The experiment was repeated three times, and the data was subjected to the Dunnett's multiple comparisons with Control. The symbol “*” means a level of significance of p<0.01.
(§2) Except for adding the test substances listed in Tables 8 and 9 at respective concentrations shown in the tables, experiments were respectively conducted in accordance with the methods in Experiments 1-2 and 1-3 disclosed in the specification to examine the effect of the combination use of epigallocatechin gallate, which is used as an antioxidant for cosmetics, and sodium adenosine N1-oxide 5′-phosphate on the action of accelerating the cornified-envelope production and the action of enhancing the transglutaminase activity of sodium adenosine N1-oxide 5′-phosphate. A control system was provided and similarly treated as above except for not adding any test substance and was determined for both the increase rates of cornified-envelope production level and the transglutaminase activity, based on the following equations. Equation: Increase rate of cornified envelope production level (%)={[(Absorbance of a sample with any one of test substances)/(Absorbance of control)]×100}−100 Equation: Increase rate of transglutaminase (%)={[(Absorbance of a sample with any one of test substances)/(Absorbance of control)]×100}−100

transglutaminase = experiment: Transglutaminase activity, fluorescein cadaverine uptake (Experiments 1-3 and 7); type: cell-based, human; settings: single use, increase over control
Procedure: Normal human epidermal keratinocytes were cultured similarly as in Experiment 1-1, except for adding the test substances as listed in Table 3 to respective culture systems. The cultured normal human epidermal keratinocytes were added with 100 μM of fluorescein cadaverine and allowed to stand for four hours. Thereafter, the resulting cells were washed once with phosphate buffered saline and further treated with cold methanol for 10 min for cell fixation. The fixed cells were washed thrice with cold methanol, followed by the addition of phosphate buffered saline. Fluorescein cadaverine taken in the cells via transglutaminase was analyzed with Cell Imaging Station, commercialized by Molecular Probes Life Technology, France, and the analyzed fluorescent intensities were regarded as transglutaminase activities. There was provided a control system similarly as in the above, except for not adding any of the test substances. The transglutaminase activity of each test substance was evaluated as a relative value determined with the following equation using the fluorescent intensity of the control system being regarded as 100%. Equation: Transglutaminase activity (relative value (%))=[(Fluorescent intensity of a sample with any one of test substances)/(Fluorescent intensity of control)]×100
as §1, §2

[2] = system: human epidermoid carcinoma cell line A-431; experiment: Tight-junction function, lucifer yellow transmittance (Experiments 2 and 8); type: cell-based; settings: 3 mM, single use; reduction against control
Description: A human epidermoid carcinoma cell line A-431 was suspended in a media, supplemented with any of the test substances disclosed in Table 4 and having respective concentrations as indicated in the table, to give a cell concentration of 1×10^5 cells/mL, and each cell suspension was placed in an insert cup for a 12-well culture plate by two milliliters per well, followed by culturing the cells until reaching a confluent state through over the bottom surface of each well. The inner and the outer cup volumes were adjusted to give two milliliters while checking both the liquid levels of the cups were constant, and lucifer yellow as a model for permeating substance, commercialized by Life Technologies Corporation, CA, USA, was added to each inner cup to give a final concentration of 100 μM. Thereafter, the fluorescent intensities of lucifer yellow in the culture media in both the inner and the outer cups were measured, followed by calculating the percentage of the fluorescent intensity of the outer cup against that of the sum of the outer and the inner cups for use as a transmittance of lucifer yellow with the following equation. Equation: Transmittance of lucifer yellow (%)={(Absorbance of a liquid outside of an insert cup)/[(Absorbance of a liquid inside of the insert cup)+(Absorbance of the liquid outside of the insert cup)]}×100
There was provided a control system prepared similarly as above except for not adding any of the test substances, and the transmittance of lucifer yellow was regarded as 100% for evaluating the reduction of transmittance due to the reinforcement of the function of tight junction, based on the following equation. Equation: Relative transmittance (Relative percentage (%)) of lucifer yellow=[(Transmittance of a sample with any one of test substances)/(Transmittance of control)]×100
The experiment was repeated three times, and the data was subjected to the Dunnett's multiple comparisons with control. The symbol “*” means a level of significance of p<0.01.
Except for adding the test substances listed in Table 11 at respective concentrations shown in the table, experiments were respectively conducted in accordance with the methods in Experiment 2 disclosed in the specification to examine the effect of the combination use with ethylenediaminetetraacetate used as a preservative for cosmetics on the action of reinforcing the function of tight junction by sodium adenosine N1-oxide 5′-phosphate. A control system was provided and similarly treated as above except for not adding any test substance. The reduction rate of relative transmittance of lucifer yellow against that of control based on the following equation. Equation: Reduction rate of relative transmittance of lucifer yellow (%)=100−[(Transmittance of a sample with any one of test substances)/(Transmittance of control)]×100

Compound: O=C1O[C@H]([C@@H](O)CO)C(O)=C1O[C@H]1O[C@H](CO)[C@@H](O)[C@H](O)[C@H]1O [Ascorbic acid 2-glucoside, reference compound]
- Reduction rate of the production level of matrix metalloprotease-1 activity (%) (matrix metalloprotease-1): 2.1%

Compound: [Ca+2].[Cl-].[Cl-] [CaCl2, calcium chloride, reference compound]
- Relative expression level of filaggrin protein (%) (filaggrin protein): 289%

- Increase rate of transglutaminase activity (%) (transglutaminase; 1.6 μM): 5.6%
- Increase rate of transglutaminase activity (%) (transglutaminase; 3.3 μM): 19.0%
- Increase rate of transglutaminase activity (%) (transglutaminase; 6.5 μM): 6.5%
Compound: O=C(O[C@@H]1Cc2c(O)cc(O)cc2O[C@@H]1c1cc(O)c(O)c(O)c1)c1cc(O)c(O)c(O)c1 [Epigallocatechin gallate, reference compound]
- Increase rate of cornified envelope formation level (%) ([1]; 1.6 μM): 28.0%
- Increase rate of cornified envelope formation level (%) ([1]; 3.3 μM): 37.3%

Compound: O=C(O)CN(CCN(CC(=O)O)CC(=O)O)CC(=O)O [Ethylenediaminetetraacetate, reference compound]
- Reduction rate of relative transmittance of lucifer yellow (%) [2]: −24.7%
